Here are results for 2 molecules from article PMC12668308, “A Novel Antimalarial Agent that Inhibits Protein Synthesis in Plasmodium falciparum” (Angewandte Chemie (International Ed. in English), 2025).

The nature of one series: Cytotoxicity assay (MTT). It is filed as cell-based, human. As to conditions: human, HepG2 cells; HepG2, 48 h, MTT; mean ± s.d. On the procedure: (§1) HepG2 (2x10^4 cells per well) were seeded in 96-well flat-bottom culture plates in 100 µL of culture medium (DMEM containing 10% fetal calve serum and 1% penicillin-streptomycin). After 24 hours, the medium was replaced by fresh medium containing test compounds in a final DMSO concentration of 1%. […] Epirubicin and doxorubicin were used as positive controls in serial dilutions starting from 10 µM, and rifampicin was used as a negative control (at 100 µM). Cell viability was determined 48 h after treatment with compounds by adding 0.1 volumes of 3-(4,5-dimethylthiazol-2-yl)-2,5-diphenyltetrazolium bromide (MTT) solution (5 mg/mL sterile PBS) (Sigma, St. Louis, MO) to the wells. After incubating the cells for 30 min at 37 °C (atmosphere containing 5% CO2), medium was removed and MTT crystals were dissolved in 75 µL of a solution containing 10% SDS and 0.5% acetic acid in DMSO. The optical density (OD) of the samples was measured photometrically at 570 nm in a PHERAstar Omega plate reader (BMG labtech, Ortenberg, Germany). Percent viability was calculated by normalizing sample ODs to those of the DMSO controls. Each compound was tested in at least two independent experiments and CC50 values were determined using the nonlinear regression function of GraphPad Prism 10 (GraphPad Software, San Diego, CA, USA).

The subject of a further series is HepG2. Description: Cytotoxicity assay (MTT). It counts as cell-based, human. On the procedure:
as §1

Series [1] is described as follows: Metabolic stability in liver S9 fractions. To be noted: pooled mouse liver S9 fraction; 1 μM compound, 1 mg/mL pooled mouse liver S9, 37 °C; read-out: t1/2 Mouse Liver S9. It counts as in vitro ADME. The procedure: To evaluate phase I and phase II metabolic stability, the compound (1 μM) was incubated at 37 °C for 240 min with 1 mg/mL pooled mouse liver S9 fraction (Xenotech, Kansas City, USA), 2 mM NADPH, 1 mM UDPGA, 10 mM MgCl2, 5 mM GSH and 0.1 mM PAPS. Metabolic stability of reference compounds: testosterone, verapamil and ketoconazole was determined in parallel to confirm the enzymatic activity of mouse S9 fractions. At defined time points, the incubation was stopped by precipitation of aliquots of S9 enzymes with 2 volumes of cold acetonitrile containing internal standard (150 nM diphenhydramine or 15 nM for Altis Plus measurements). Samples were kept on ice until the end of the incubation, after which precipitated protein was removed by centrifugation (15 min, 4 °C, 4,000 g).

Series [2] concerns the target Phosphatidylinositol 4-kinase (W7K9N9) (Plasmodium falciparum, UniProt W7K9N9). Description: iSPP profiling, P. falciparum lysate. It is filed as binding. To be noted: 100 µM compound 34. On the procedure:
(§2) P. falciparum NF54 lysates were extracted as described in ^[26^] . The parasite asynchronous culture was extracted once 3-5% parasitemia was reached. Saponin lysis was done as described in 2.2.10. Once the parasite pellet was obtained, 2.5 volumes of ice-cold lysis buffer (50 mM Tris/HCl pH 7.5 (Avantor), 5% glycerol (Sigma-Aldrich), 150 mM NaCl (Carl Roth), 1.5 mM MgCl2 (Sigma-Aldrich), 1 mM DTT (Carl Roth), 0.8% IGEPAL CA-630 (Sigma-Aldrich), 1X Halt Protease and Phosphatase Inhibitor-Cocktails EDTA-free (Thermo Fisher Scientific)) was added to the parasite pellet. The lysate solution was subjected to three cycles of flash freeze-thaw with liquid nitrogen and ddH2O at RT. The lysates were centrifuged at 20,000 g for 20 minutes at 4 °C. The soluble protein fraction (supernatant) was collected and the protein content was quantified using the BCA assay (Pierce™ BCA Protein Assay Kit, Thermo Fisher Scientific). The lysate was stored at -80 °C until further use.
(§3) The P. falciparum lysate was thawed on ice and diluted to 0.8 mg/mL. The lysate was aliquoted, and each aliquot was incubated with either a vehicle control (DMSO), 34 (dissolved in DMSO), or varying concentrations of 31 (dissolved in DMSO) at 0.01 µM, 0.1 µM, 10 µM, 50 µM, and 100 µM. Subsequently, the samples were incubated at room temperature for 30 minutes using a rotating mixer. After distribution into a 96-well plate, the samples were treated with increasing concentrations of A.E.A. (v/v) ranging from 14% to 28% (14, 16, 18, 20, 22, 24, 26, and 28%). Following a 20-minute incubation at 37°C with shaking at 750 rpm, the samples were centrifuged at 4400 g for 35 minutes to remove precipitated proteins. The soluble fractions were then pooled in equal volumes into a single sample using the Bravo Automated Liquid Handling Platform. […]
(§4) The raw LFQ-DIA intensity values of biological replicates across all conditions were normalized to the median abundance using Excel. […] Dose-dependent curves were generated using normalized protein intensity values, expressed as a ratio to the vehicle control. […]

The target in series [3] is Aquaglyceroporin (W7K5E1) (Plasmodium falciparum, UniProt Q8II36). Description: iSPP profiling, P. falciparum lysate. To be noted: 100 µM compound 34. It counts as binding. The procedure:
as §2, §3, §4

In series [4] the test system is 3-hydroxyacyl-[acyl-carrier-protein] dehydratase (W7K0B9). Description: iSPP profiling, P. falciparum lysate. It is filed as binding. As to conditions: 100 µM compound 34. The procedure: as §2, §3, §4

Sequence of Aquaglyceroporin (W7K5E1) (Q8II36 whole entry, one chain of several): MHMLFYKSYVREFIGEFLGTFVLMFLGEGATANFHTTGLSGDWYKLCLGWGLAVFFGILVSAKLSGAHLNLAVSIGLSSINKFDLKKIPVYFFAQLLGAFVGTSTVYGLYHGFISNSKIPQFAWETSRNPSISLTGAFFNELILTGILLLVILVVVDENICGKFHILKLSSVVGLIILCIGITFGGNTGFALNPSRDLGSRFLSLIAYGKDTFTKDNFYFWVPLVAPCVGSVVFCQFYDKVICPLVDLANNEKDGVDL
Sequence of Phosphatidylinositol 4-kinase (W7K9N9) (W7K9N9 entry or part of it): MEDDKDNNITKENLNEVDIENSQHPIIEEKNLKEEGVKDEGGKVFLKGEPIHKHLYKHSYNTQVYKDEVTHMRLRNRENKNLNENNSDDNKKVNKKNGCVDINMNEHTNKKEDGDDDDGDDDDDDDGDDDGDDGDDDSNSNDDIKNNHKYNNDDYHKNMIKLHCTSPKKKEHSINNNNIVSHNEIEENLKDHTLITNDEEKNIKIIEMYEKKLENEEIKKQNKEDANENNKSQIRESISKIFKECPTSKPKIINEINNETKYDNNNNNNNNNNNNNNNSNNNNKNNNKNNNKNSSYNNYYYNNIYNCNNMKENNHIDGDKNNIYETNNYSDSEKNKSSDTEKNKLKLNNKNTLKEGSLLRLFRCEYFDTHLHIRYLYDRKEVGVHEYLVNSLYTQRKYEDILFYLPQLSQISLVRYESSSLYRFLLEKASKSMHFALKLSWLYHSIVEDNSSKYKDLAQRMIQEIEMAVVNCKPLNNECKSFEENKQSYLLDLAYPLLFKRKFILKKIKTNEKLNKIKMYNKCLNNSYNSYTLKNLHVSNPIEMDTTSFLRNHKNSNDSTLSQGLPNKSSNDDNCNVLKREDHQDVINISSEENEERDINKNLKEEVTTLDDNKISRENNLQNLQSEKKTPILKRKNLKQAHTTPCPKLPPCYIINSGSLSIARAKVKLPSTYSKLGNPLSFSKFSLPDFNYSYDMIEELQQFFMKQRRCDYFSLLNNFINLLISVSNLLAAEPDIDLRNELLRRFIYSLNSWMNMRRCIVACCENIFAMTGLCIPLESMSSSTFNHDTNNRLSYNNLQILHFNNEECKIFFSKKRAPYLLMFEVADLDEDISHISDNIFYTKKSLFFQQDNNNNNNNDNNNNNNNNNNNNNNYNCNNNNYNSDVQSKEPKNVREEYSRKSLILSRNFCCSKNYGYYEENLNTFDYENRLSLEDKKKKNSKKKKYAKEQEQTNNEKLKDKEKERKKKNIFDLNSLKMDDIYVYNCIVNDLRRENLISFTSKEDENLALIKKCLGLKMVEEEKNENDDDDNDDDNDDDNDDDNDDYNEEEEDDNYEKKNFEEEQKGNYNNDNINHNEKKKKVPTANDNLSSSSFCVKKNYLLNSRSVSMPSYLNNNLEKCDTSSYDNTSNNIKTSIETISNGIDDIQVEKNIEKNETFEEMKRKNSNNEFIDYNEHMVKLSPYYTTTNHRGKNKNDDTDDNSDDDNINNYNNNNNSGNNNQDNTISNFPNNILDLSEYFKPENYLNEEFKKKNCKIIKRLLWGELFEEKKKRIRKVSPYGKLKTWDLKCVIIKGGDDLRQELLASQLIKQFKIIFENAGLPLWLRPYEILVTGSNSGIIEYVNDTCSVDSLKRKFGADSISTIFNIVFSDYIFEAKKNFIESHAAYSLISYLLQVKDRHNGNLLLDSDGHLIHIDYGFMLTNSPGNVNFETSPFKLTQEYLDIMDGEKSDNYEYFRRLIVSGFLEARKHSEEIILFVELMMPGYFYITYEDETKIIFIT

With `CN1CCN(Cc2ccc(O)c(NC(=O)c3cccc(Oc4cc(C(F)(F)F)ccn4)c3)c2)CC1` [Compound 31, N-(2-hydroxy-5-((4-methylpiperazin-1-yl)methyl)phenyl)-3-((4-(trifluoromethyl)pyridin-2-yl)oxy)benzamide], half-maximal cytotoxicity in “Cytotoxicity assay (MTT)” (CC50 at 48 h) was put at 37 µM. Besides, in the series with HepG2 (HepG2 CC50 / P. falciparum IC50), the “selectivity index (CC50/IC50)” value is 9,487. Moreover, in the series with HepG2 (Homo sapiens, HepG2, 100 µM, 48 h, MTT), at 100 µM the inhibition was 87 ± 5%. Moreover, the half-life at 1 µM in series [1] amounted to 42.7 ± 3.7 min.

For `O=C(Nc1cc(CN2CCOCC2)ccc1F)c1cccc(Oc2cc(C(F)(F)F)ccn2)c1` [Compound 34, N-(2-Fluoro-5-(morpholinomethyl)phenyl)-3-((4-(trifluoromethyl)pyridin-2-yl)oxy)benzamide], the log2FC in series [2] came out at 0.5024; in series [3], 0.4199; in series [4], 0.431.

What is called CC50 is the concentration at which the toxic effect on the cells reaches its halfway point. High values mean better tolerance by the cells, low ones harm at low concentration. One may read the inhibition as the share of the control response that was lost under treatment. A higher inhibition goes with a response far below the control.
